Consider 1 compound from patent publication US8247224B2, “Recombinant construct for detection of halogenated aromatic hydrocarbons” (National Health Research Institutes, priority 2010, dated 2012).

This experiment has as its target T1, AhR (Rattus norvegicus, UniProt P41738).
T1 construct: introducing a recombinant construct as described above into a host cell that expresses AhR; endogenous in cells; host or cells: H-4-II-E cells infected with the AdEasy-4XDRE-TATA-Luc reporter adenovirus
T1 sequence (P41738 10-853): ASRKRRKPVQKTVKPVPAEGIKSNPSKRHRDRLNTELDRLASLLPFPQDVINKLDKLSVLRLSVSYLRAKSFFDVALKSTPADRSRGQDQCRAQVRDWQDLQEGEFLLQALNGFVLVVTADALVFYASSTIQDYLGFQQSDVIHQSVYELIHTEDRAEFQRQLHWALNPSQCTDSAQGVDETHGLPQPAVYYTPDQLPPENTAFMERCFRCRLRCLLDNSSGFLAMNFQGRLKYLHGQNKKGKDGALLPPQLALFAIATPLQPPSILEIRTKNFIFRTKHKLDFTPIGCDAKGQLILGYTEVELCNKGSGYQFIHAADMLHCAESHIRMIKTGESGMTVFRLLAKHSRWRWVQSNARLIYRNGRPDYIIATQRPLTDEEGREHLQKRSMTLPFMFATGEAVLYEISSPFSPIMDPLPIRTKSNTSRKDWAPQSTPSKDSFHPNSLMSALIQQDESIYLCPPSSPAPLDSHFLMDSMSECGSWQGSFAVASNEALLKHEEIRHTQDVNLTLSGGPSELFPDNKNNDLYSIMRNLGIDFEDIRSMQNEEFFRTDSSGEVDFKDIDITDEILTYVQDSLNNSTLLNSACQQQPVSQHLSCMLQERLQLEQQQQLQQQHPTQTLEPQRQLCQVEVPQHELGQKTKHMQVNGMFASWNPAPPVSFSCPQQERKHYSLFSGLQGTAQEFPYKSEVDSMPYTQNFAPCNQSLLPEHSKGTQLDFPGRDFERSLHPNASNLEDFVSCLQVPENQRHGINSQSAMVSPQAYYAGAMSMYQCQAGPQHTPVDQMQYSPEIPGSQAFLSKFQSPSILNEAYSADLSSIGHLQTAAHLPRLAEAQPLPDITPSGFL
Nature of the experiment: Luciferase activity of H-4-II-E cells infected with AdEasy-4XDRE-TATA-Luc and treated with TCDD. The experiment is classed as cell-based. The following applies: AdEasy-4XDRE-TATA-Luc at MOI of one particles/cell for 16 hours, TCDD for 24 hours, luciferase activity (RLU), FIG. 6. The source says:
As known in the art, the action of the HAH compounds is mediated through a cytosolic transcription factor, called the aryl hydrocarbon receptor (AhR). After binding of the ligand (HAH compounds), the resulted AhR complex binds to specific DNA sequences i.e. DREs, and then results in transcriptional activation of the adjacent responsive genes. The consensus sequence of the DREs is 5′-TNGCGTG-3′ where N means any nucleotide of A, T, G and C.
H-4-II-E cells (Bioresources Collection and Research Center (BCRC), Food Industry Research and Development Institute (FIRDI), Hsinchu, Taiwan) were seeded on 96-well plates at a density of 2×10^4 cells/well in culture medium (80% Minimum essential medium Eagle with 0.1 mM non-essential amino acids, Earle's BSS, 10% fetal bovine serum and 10% calf serum) and cultured overnight in a humidified atmosphere containing 5% CO2 at 37° C. Subsequently, the cells were incubated with AdEasy-4XDRE-TATA-Luc as obtained in Example 1 at a multiplicity of infection (MOI) of one particles/cell for 16 hours. […] Luciferase activity was measured by Luciferase Assay System (Promega, Madison, Wis., USA) according to the standard protocol as provided using the programmed microplate luminometer MicroLumatPlus LB96V (EG&G Berthold, Germany). The luciferase activity was expressed as relative light units (RLU).

`Clc1cc2c(cc1Cl)Oc1cc(Cl)c(Cl)cc1O2` [TCDD, 2,3,7,8-tetrachlorodibenzo-p-dioxin]: the “concentrations between which the luciferase response shows a steep slope” value is 10^−12 to 10^−10 M and the detection limit result is “around 10^−12 M”.
